SMILES strings stand for the structures. Where only a bound is given, the exact number is not on record here.

The target in the assay is T1, CYP11A1 (Homo sapiens, UniProt P05108).
T1 construct: human H295R adrenocortical carcinoma cell line was used as source of enzyme; endogenous in cells; host or cells: H295R human adrenocortical carcinoma cells
T1 sequence (P05108 40-521): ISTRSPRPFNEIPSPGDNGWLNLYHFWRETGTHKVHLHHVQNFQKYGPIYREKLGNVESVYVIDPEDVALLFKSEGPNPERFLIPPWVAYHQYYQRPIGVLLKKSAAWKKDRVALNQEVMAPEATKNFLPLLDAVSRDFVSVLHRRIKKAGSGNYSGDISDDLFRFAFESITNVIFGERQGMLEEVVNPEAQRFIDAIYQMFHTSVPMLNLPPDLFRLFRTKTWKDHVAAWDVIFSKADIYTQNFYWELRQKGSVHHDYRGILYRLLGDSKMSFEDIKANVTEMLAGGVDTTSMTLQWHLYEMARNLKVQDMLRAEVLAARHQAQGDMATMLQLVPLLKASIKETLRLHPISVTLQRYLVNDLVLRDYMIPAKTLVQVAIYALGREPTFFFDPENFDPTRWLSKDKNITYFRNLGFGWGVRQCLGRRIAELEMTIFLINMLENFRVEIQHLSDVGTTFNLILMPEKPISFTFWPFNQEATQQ
The assay can be described thus: CYP11A1 inhibition, isocaproic acid release assay (IARA) in H295R cells. Format: cell-based. The note with it: human H295R adrenocortical carcinoma cells treated three days, 3 nM [24,25-3H]-labelled cholesterol, 1% DMSO; read-out: IC50 on CYP11A1 inhibition (Group). The procedure: The ability of the test compounds to inhibit conversion of cholesterol to pregnenolone and isocaproic acid was measured by modification of isocaproic acid release assay (IARA) described by Ruangwises et al. (Biology of Reproduction 1991; 45(1):143-50) except that human H295R adrenocortical carcinoma cell line was used as source of enzyme and extraction was done with dextran-coated charcoal suspension (Isomaa, V. et al., Endocrinology 1982; 111(3):833-843). […] To determine the half maximal inhibitory concentration (IC50) of the test compounds on CYP11A1 inhibition, the cells were treated for three days with increasing concentrations of the test compounds in the presence of 3 nM [24,25-3H]-labelled cholesterol (American Radiolabelled Chemicals).
The final DMSO concentration was 1%. Cell culture medium was extracted with dextran-coated charcoal suspension and the radiolabelled isocaproic acid was determined by mixing 100 μl of supernatant fraction in 200 μl of scintillation fluid (OptiPhase SuperMix, Perkin Elmer). Radioactivity was measured using a Microbeta scintillation counter (1450 MicroBeta Trilux, Wallac). All the test compounds were studied at 10 concentrations in duplicates.
As for `COC(=O)c1ccc(COc2ccc(CN3Cc4ccccc4C3)cc2OC)cc1` [Compound 1, Methyl 4-((4-(isoindolin-2-ylmethyl)-2-methoxyphenoxy)methyl) benzoate], the concentration for half-maximal inhibition (IC50) was in the range of 351 to 1500 nM. Then `COC(=O)c1ccc(COc2ccc(CN3Cc4ccccc4C3)cc2)cc1` [Compound 2, Methyl 4-((4-(isoindolin-2-ylmethyl)phenoxy)methyl)benzoate], with 351 to 1500 nM; and `COc1cc(CN2Cc3ccccc3C2)ccc1OCc1ccc(C(=O)N(C)C)cc1` [Compound 3, 4-((4-(Isoindolin-2-ylmethyl)-2-methoxyphenoxy)methyl)-N,N-dimethyl-benzamide], with < 150 nM. Under `CN(C)C(=O)c1ccc(COc2ccc(CN3Cc4ccccc4C3)cc2Cl)cc1` [Compound 4, 4-((2-Chloro-4-(isoindolin-2-ylmethyl)phenoxy)methyl)-N,N-dimethyl-benzamide] stands 151 to 350 nM; under `CN(C)C(=O)c1ccc(COc2ccc(CN3Cc4ccccc4C3)cc2O)cc1` [Compound 5, 4-((2-Hydroxy-4-(isoindolin-2-ylmethyl)phenoxy)methyl)-N,N-dimethyl-benzamide], 151 to 350 nM; under `CN(C)C(=O)c1ccc(COc2ccc(CN3Cc4ccccc4C3)cc2C#N)cc1` [Compound 6, 4-((2-Cyano-4-(isoindolin-2-ylmethyl)phenoxy)methyl)-N,N-dimethylbenzamide], < 150 nM. Under `COC(=O)c1cc(CN2Cc3ccccc3C2)ccc1OCc1ccc(C(=O)N(C)C)cc1` [Compound 7, Methyl 2-((4-(dimethylcarbamoyl)benzyl)oxy)-5-(isoindolin-2-ylmethyl)-benzoate] stands 151 to 350 nM; under `CCOc1cc(CN2Cc3ccccc3C2)ccc1OCc1ccc(C(=O)N(C)C)cc1` [Compound 8, 4-((2-Ethoxy-4-(isoindolin-2-ylmethyl)phenoxy)methyl)-N,N-dimethyl-benzamide], 151 to 350 nM. As to `COC(=O)/C=C/c1ccc(COc2ccc(CN3Cc4ccccc4C3)cc2OC)cc1` [Compound 9, Methyl (E)-3-(4-((4-(isoindolin-2-ylmethyl)-2-methoxyphenoxy)methyl)phenyl)acrylate], the half-inhibitory concentration (IC50) is 351 to 1500 nM. Then `COCc1cc(CN2Cc3ccccc3C2)ccc1OCc1ccc(C(=O)N(C)C)cc1` [Compound 10, 4-((4-(Isoindolin-2-ylmethyl)-2-(methoxymethyl)phenoxy)methyl)-N,N-di-methylbenzamide], with 151 to 350 nM; and `CN(C)C(=O)c1ccc(COc2ccc(CN3Cc4ccccc4C3)cc2OCC(F)(F)F)cc1` [Compound 11, 4-((4-(Isoindolin-2-ylmethyl)-2-(2,2,2-trifluoroethoxy)phenoxy)methyl)-N,N-dimethylbenzamide], with 151 to 350 nM; and `COc1cc(CN2Cc3ccccc3C2)ccc1OCc1ccc(S(C)(=O)=O)cc1` [Compound 12, 2-(3-Methoxy-4-((4-(methylsulfonyl)benzyl)oxy)benzyl)isoindoline], with < 150 nM. Turning to `COCCNS(=O)(=O)c1ccc(COc2ccc(CN3Cc4ccccc4C3)cc2OC)cc1` [Compound 13, 4-((4-(Isoindolin-2-ylmethyl)-2-methoxyphenoxy)methyl)-N-(2-methoxyethyl)-benzenesulfonamide], the IC50 is < 150 nM. Under `CN(C)C(=O)c1ccc(COc2ccc(CN3Cc4ccccc4C3)cc2OCC(N)=O)cc1` [Compound 14, 4-((2-(2-Amino-2-oxoethoxy)-4-(isoindolin-2-ylmethyl)phenoxy)methyl)-N,N-dimethylbenzamide] stands < 150 nM; under `C=CCc1cc(CN2Cc3ccccc3C2)ccc1OCc1ccc(C(=O)N(C)C)cc1` [Compound 15, 4-((2-Allyl-4-(isoindolin-2-ylmethyl)phenoxy)methyl)-N,N-dimethylbenzamide], 151 to 350 nM.

Regarding `CS(=O)(=O)c1ccc(COc2ccc(CN3Cc4ccccc4C3)cc2C#N)cc1` [Compound 16, 5-(Isoindolin-2-ylmethyl)-2-((4-(methylsulfonyl)benzyl)oxy)benzonitrile], the IC50 lay in the range of 151 to 350 nM.

As for `CN(C)C(=O)c1cc(CN2Cc3ccccc3C2)ccc1OCc1ccc(S(C)(=O)=O)cc1` [Compound 17, 5-(Isoindolin-2-ylmethyl)-N,N-dimethyl-2-((4-(methylsulfonyl)benzyl)oxy)-benzamide], the IC50 was 351 to 1500 nM. Under `COCc1cc(CN2Cc3ccccc3C2)ccc1OCc1ccc(S(C)(=O)=O)cc1` [Compound 18, 2-(3-(Methoxymethyl)-4-((4-(methylsulfonyl)benzyl)oxy)benzyl)isoindoline] stands 151 to 350 nM.

Take `CS(=O)(=O)N1CCC(COc2ccc(CN3Cc4ccccc4C3)cc2C#N)CC1` [Compound 19, 5-(Isoindolin-2-ylmethyl)-2-((1-(methylsulfonyl)piperidin-4-yl)methoxy)-benzonitrile]: the IC50 is < 150 nM. As to `COCCS(=O)(=O)c1ccc(COc2ccc(CN3Cc4ccccc4C3)cc2COC)cc1` [Compound 20, 2-(4-((4-((2-Methoxyethyl)sulfonyl)benzyl)oxy)-3-(methoxymethyl)benzyl)-isoindoline], the IC50 was < 150 nM.

As for `COc1c(OCc2ccc(S(C)(=O)=O)cc2)ccc(CN2Cc3ccccc3C2)c1F` [Compound 21, 2-(2-Fluoro-3-methoxy-4-((4-(methylsulfonyl)benzyl)oxy)benzyl)isoindoline], the IC50 was < 150 nM. Then `COCc1cc(CN2Cc3ccccc3C2)ccc1OCC1CCN(S(C)(=O)=O)CC1` [Compound 22, 2-(3-(Methoxymethyl)-4-((1-(methylsulfonyl)piperidin-4-yl)methoxy)benzyl)-isoindoline], with < 150 nM; and `COc1c(OCC2CCN(C(=O)NC(C)C)CC2)ccc(CN2Cc3ccccc3C2)c1[N+](=O)[O-]` [Compound 23, 4-((4-(Isoindolin-2-ylmethyl)-2-methoxy-3-nitrophenoxy)methyl)-N-isopropyl-piperidine-1-carboxamide], with 351 to 1500 nM. Under `CN(C)C(=O)c1ccc(COc2ccc(CN3Cc4ccccc4C3)c(F)c2)cc1` [Compound 24, 4-((3-Fluoro-4-(isoindolin-2-ylmethyl)phenoxy)methyl)-N,N-dimethylbenzamide] stands 351 to 1500 nM. Then `CN(C)C(=O)c1ccc(COc2cc(F)c(CN3Cc4ccccc4C3)c(F)c2)cc1` [Compound 25, 4-((3,5-Difluoro-4-(isoindolin-2-ylmethyl)phenoxy)methyl)-N,N-dimethyl-benzamide], with 151 to 350 nM; and `CN(C)C(=O)c1ccc(COc2cc(F)c(CN3Cc4ccccc4C3)cc2F)cc1` [Compound 26, 4-((2,5-Difluoro-4-(isoindolin-2-ylmethyl)phenoxy)methyl)-N,N-dimethyl-benzamide], with < 150 nM; and `CN(C)C(=O)c1ccc(COc2ccc(CN3Cc4ccccc4C3)c(F)c2F)cc1` [Compound 27, 4-((2,3-Difluoro-4-(isoindolin-2-ylmethyl)phenoxy)methyl)-N,N-dimethyl-benzamide], with 351 to 1500 nM. On to `COc1cc(CN2Cc3ccccc3C2)cc(F)c1OCc1ccc(C(=O)N(C)C)cc1` [Compound 28, 4-((2-Fluoro-4-(isoindolin-2-ylmethyl)-6-methoxyphenoxy)methyl)-N,N-di-methylbenzamide], for which the half-maximal inhibitory concentration (IC50) fell in the range of 351 to 1500 nM. Take `CN(C)C(=O)c1ccc(COc2ccc(CN3Cc4ccccc4C3)cc2OC(F)(F)F)cc1` [Compound 29, 4-((4-(Isoindolin-2-ylmethyl)-2-(trifluoromethoxy)phenoxy)methyl)-N,N-dimethylbenzamide]: the IC50 was in the range of 351 to 1500 nM. Under `CN(C)C(=O)c1ccc(COc2ccc(CN3Cc4ccccc4C3=O)cc2OC(F)(F)F)cc1` [Compound 30, N,N-Dimethyl-4-((4-((1-oxoisoindolin-2-yl)methyl)-2-(trifluoromethoxy)-phenoxy)methyl)benzamide] stands 351 to 1500 nM.

As to `COc1cc(OCc2ccc(C(=O)N(C)C)cc2)ccc1CN1Cc2ccccc2C1` [Compound 31, 4-((4-(Isoindolin-2-ylmethyl)-3-methoxyphenoxy)methyl)-N,N-dimethyl-benzamide], the IC50 was in the range of 351 to 1500 nM. Then `COc1cc(CN2Cc3ccc(S(C)(=O)=O)cc3C2)ccc1OCc1ccc(C(=O)N(C)C)cc1` [Compound 32, 4-((2-Methoxy-4-((5-(methylsulfonyl)isoindolin-2-yl)methyl)phenoxy)methyl)-N,N-dimethylbenzamide], with 351 to 1500 nM; and `CS(=N)(=O)c1ccc(COc2ccc(CN3Cc4ccccc4C3)cc2C#N)cc1` (stereo not drawn) [Compound 33, 5-(isoindolin-2-ylmethyl)-2-((4-(S-methylsulfonimidoyl)benzyl)oxy)benzonitrile], with < 150 nM.

(Values after patent publication US20250011285A1, “CYP11A1 INHIBITORS” (ORION CORPORATION, priority 2021, published 2025).)
